{"source": "ChEMBL document CHEMBL4673352", "about": "“Discovery of AZD4573, a Potent and Selective Inhibitor of CDK9 That Enables Short Duration of Target Engagement for the Treatment of Hematological Malignancies” (J Med Chem, 2020)", "key": {"[1]": {"assay": "Solubility of compound in pH 7.4 PBS buffer using crystalline form of sample", "format": "physicochemical"}, "[2]": {"assay": "Half-life in mouse at […], iv formulated as solution", "format": "ADME, organism-based", "conditions": "in vivo"}, "[3]": {"assay": "Drug metabolism in human liver microsome assessed as (1S,3R)-3-acetamido-N-(5-chloro-4-(5-(4-hydroxybutyl)-1H-pyrazol-4-yl)pyridin-2-yl)cyclohexanecarboxamide formation at 10 uM measured after 1 hr in presence of NADPH by LC-UV-MS analysis", "format": "ADME", "conditions": "microsomes"}, "CDK9/cyclin T1": {"target": "CDK9/cyclin T1 (Homo sapiens, UniProt O60563+P50750)", "assay": "Inhibition of human recombinant full-length CDK9/CyclinT1 expressed in Sf21 insect cells using PDKtide as substrate at 1 uM incubated for 40 mins in presence of [gamma32P]-ATP by scintillation counting method relative to control"}, "[4]": {"assay": "Drug metabolism in human hepatocytes assessed as (1S,3R)-3-acetamido-N-(5-chloro-4-(7-hydroxy-4,5,6,7-tetrahydropyrazolo[1,5-a]pyridin-3-yl)pyridin2-yl)cyclohexanecarboxamide metabolite formation", "format": "ADME, cell-based, Hepatocyte"}, "[5]": {"assay": "Volume of distribution at steady state in mouse at […], iv formulated as solution", "format": "ADME, organism-based", "conditions": "in vivo, read-out: Vdss"}, "[6]": {"assay": "Solubility of compound in pH 4 0.1 M acetate buffer using crystalline form of sample", "format": "physicochemical"}, "[7]": {"assay": "Clearance in mouse plasma at […], iv formulated as solution", "format": "ADME, organism-based", "conditions": "dose 4.8 µmol/kg"}, "MV4-11": {"tested_on": "MV4-11", "assay": "Antitumor activity against human MV4-11 cells xenografted in ip dosed CB17 SCID mouse assessed as cell death administered twice daily at 2 hrs dose interval with 2 days on and 5 days off dosing schedule", "format": "functional, organism-based"}, "[8]": {"assay": "Clearance in cynomolgus monkey plasma at 0.46 umol/kg, iv administered over 0.25 hrs formulated as solution in DMA/PEG400/Tween80", "format": "ADME, organism-based, Macaca fascicularis", "conditions": "dose 0.46 µmol/kg"}, "[9]": {"target": "Cyclin-dependent kinase 9 (Mus musculus) (UniProt Q99J95)", "sequence (Q99J95 whole entry)": "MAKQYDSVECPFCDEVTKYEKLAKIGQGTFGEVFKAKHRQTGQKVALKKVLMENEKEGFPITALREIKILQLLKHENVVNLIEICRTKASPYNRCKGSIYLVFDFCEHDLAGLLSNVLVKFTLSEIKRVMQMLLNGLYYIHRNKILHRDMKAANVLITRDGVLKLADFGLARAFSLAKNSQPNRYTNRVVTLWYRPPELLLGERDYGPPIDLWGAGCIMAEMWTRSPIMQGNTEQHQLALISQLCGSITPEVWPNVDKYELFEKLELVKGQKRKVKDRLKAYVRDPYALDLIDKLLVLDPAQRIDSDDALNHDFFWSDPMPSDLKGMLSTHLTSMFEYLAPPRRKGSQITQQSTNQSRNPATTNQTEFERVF", "assay": "In-vivo inhibition of CDK9 in CB17 SCID mouse xenografted with human NOMO1 cells assessed as reduction in RNA Polymerase 2 CTD phosphorylation at Ser2 residues administered intraperitoneally twice at 2 hrs dosing interval with 2 days on and 5 days off dosing schedule by Western blot analysis", "format": "functional", "conditions": "dose 5-15 mg/kg"}, "[10]": {"assay": "Drug metabolism in human hepatocytes assessed as (1S,3R)-3-acetamido-N-(5-chloro-4-(5-(3-hydroxy-2,2-dimethylpropyl)-1H-pyrazol-4-yl)pyridin-2-yl)cyclohexanecarboxamide metabolite formation", "format": "ADME, cell-based, Hepatocyte"}, "[11]": {"assay": "Half-life in Beagle dog at 0.23 umol/kg, iv administered over 0.25 hrs formulated as solution in 10% DMSO/90% water", "format": "ADME, organism-based, Canis lupus familiaris", "conditions": "in vivo, dose 0.23 µmol/kg"}, "[12]": {"target": "Glycogen synthase kinase-3 beta (Homo sapiens, UniProt P49841)", "sequence (P49841 whole entry)": "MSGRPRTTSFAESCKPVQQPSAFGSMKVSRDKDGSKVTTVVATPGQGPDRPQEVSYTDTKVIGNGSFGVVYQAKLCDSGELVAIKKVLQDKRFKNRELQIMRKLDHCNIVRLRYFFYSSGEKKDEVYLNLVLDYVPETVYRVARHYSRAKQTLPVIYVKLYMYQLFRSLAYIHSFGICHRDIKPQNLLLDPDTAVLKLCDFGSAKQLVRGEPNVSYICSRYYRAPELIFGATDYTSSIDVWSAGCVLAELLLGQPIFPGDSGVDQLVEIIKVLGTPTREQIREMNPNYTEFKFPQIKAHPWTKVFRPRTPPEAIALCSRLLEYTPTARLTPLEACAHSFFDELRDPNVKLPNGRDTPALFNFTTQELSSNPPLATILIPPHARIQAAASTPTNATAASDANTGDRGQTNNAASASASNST", "assay": "Inhibition of GSK3beta (unknown origin) in presence of 5 mM ATP"}, "[13]": {"assay": "Thermodynamic solubility of compound in pH 7.4 PBS buffer using crystalline form of sample", "format": "physicochemical", "conditions": "read-out: Therm_solubility"}, "[14]": {"assay": "Clearance in mouse plasma at 2.3 umol/kg, iv formulated as solution", "format": "ADME, organism-based", "conditions": "dose 2.3 µmol/kg"}, "[15]": {"assay": "Intrinsic clearance in monkey cryopreserved hepatocytes assessed per million cells […]", "format": "ADME, cell-based, Macaca mulatta, Hepatocyte", "conditions": "rhesus monkey, read-out: CLH"}, "[16]": {"assay": "Volume of distribution at steady state in cynomolgus monkey at 0.46 umol/kg, iv administered over 0.25 hrs formulated as solution in DMA/PEG400/Tween80", "format": "ADME, organism-based, Macaca fascicularis", "conditions": "in vivo, dose 0.46 µmol/kg, read-out: Vdss"}, "[17]": {"target": "Cyclin-dependent kinase 9 (Mus musculus) (UniProt Q99J95)", "assay": "In-vivo inhibition of CDK9 in mouse xenografted with human MV4-11 cells assessed as reduction in Mcl-1 at 5 to 15 mg/kg, ip BID administered at 2 hrs dose interval with 2 days on and 5 days off dosing schedule by Western blot analysis", "format": "functional, organism-based", "conditions": "dose 5-15 mg/kg"}, "[18]": {"assay": "Volume of distribution at steady state in mouse at 2.3 umol/kg, iv formulated as solution", "format": "ADME, organism-based", "conditions": "in vivo, dose 2.3 µmol/kg, read-out: Vdss"}, "[19]": {"target": "Mitogen-activated protein kinase 8 (Homo sapiens, UniProt P45983)", "sequence (P45983 whole entry)": "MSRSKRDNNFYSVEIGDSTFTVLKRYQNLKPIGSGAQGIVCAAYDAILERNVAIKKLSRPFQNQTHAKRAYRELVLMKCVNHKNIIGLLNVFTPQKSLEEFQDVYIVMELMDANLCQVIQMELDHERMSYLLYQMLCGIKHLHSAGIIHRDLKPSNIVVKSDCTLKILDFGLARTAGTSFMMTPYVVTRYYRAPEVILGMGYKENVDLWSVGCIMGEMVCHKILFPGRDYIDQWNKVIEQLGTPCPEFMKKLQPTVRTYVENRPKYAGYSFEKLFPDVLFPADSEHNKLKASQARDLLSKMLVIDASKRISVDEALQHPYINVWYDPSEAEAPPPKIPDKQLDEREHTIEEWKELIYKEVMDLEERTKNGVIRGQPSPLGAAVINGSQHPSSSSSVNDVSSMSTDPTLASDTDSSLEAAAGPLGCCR", "assay": "Inhibition of human recombinant full-length JNK1 using ATF2 as substrate at1 uM incubated for 40 mins in presence of [gamma32P]-ATP by scintillation counting method relative to control", "conditions": "dose 1.0 µM"}, "[20]": {"target": "Dual specificity mitogen-activated protein kinase kinase 7 (Homo sapiens) (UniProt O14733)", "sequence (O14733 whole entry)": "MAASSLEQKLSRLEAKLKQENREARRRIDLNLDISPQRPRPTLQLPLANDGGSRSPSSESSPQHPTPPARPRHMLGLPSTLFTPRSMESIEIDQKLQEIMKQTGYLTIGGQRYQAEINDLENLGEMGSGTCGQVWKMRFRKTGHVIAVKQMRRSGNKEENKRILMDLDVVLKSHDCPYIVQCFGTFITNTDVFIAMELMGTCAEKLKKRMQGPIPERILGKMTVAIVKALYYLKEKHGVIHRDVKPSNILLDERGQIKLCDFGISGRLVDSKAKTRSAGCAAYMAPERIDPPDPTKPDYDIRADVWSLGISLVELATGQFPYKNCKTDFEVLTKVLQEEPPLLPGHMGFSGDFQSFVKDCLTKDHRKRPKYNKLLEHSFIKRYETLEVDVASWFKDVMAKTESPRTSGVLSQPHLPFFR", "assay": "Inhibition of human recombinant […] using NK1a1 as substrate at 1 uM incubated for 40 mins in presence of [gamma32P]-ATP by scintillation counting method relative to control"}, "[21]": {"assay": "Drug metabolism in human liver microsomes assessed as3-(4-(2-((1S,3R)-3-acetamidocyclohexanecarboxamido)-5-chloropyridin-4-yl)-1H-pyrazol-5-yl)-2,2-dimethylpropanoic acid formation at 10 uM measured after 1 hr in presence of NADPH by LC-UV-MS analysis", "format": "ADME, Microsome"}, "Homo sapiens [22]": {"species_on_record": "Homo sapiens", "assay": "Selectivity ratio of IC50 for CDK6 (unknown origin) in presence of 5 mM ATP to IC50 for Inhibition of recombinant full length human N-terminal GST-fused CDK9 (1 to 372 residues)/His-tagged CyclinT1 (1 to 726 residues) expressed in baculovirus infected insect cells"}, "[23]": {"assay": "Clearance in Beagle dog plasma at […], iv administered as 0.25 hrs infusion", "format": "ADME, organism-based, Canis lupus familiaris", "conditions": "dose 0.24 µmol/kg"}, "[24]": {"assay": "Drug metabolism in human liver microsomes assessed as 3-(4-(2-((1S,3R)-3-acetamidocyclohexanecarboxamido)-5-fluoropyridin-4-yl)-1H-pyrazol-5-yl)-2,2-dimethylpropanoic acid formation at 10 uM measured after 1 hr in presence of NADPH by LC-UV-MS analysis", "format": "ADME, Microsome"}, "[25]": {"assay": "Drug metabolism in human liver microsomes assessed as (1S,3R)-3-acetamido-N-(5-fluoro-4-(5-(3-hydroxy-2,2-dimethylpropyl)-1H-pyrazol-4-yl)pyridin-2-yl)cyclohexanecarboxamide formation at 10 uM measured after 1 hr in presence of NADPH by LC-UV-MS analysis", "format": "ADME, Microsome"}, "[26]": {"target": "Cyclin-dependent kinase 9 (Homo sapiens, UniProt P50750)", "sequence (P50750 whole entry)": "as the sequence (Q99J95 whole entry) above, with T17S, K37R, Q40K, K258N, F262Y counted along it", "assay": "Inhibition of CDK9 in human MCF7 cells assessed as reduction in RNA Polymerase 2 CTD phosphorylation at Ser2 residues measured after 6 hrs by immunofluorescence assay", "format": "cell-based"}, "[27]": {"assay": "Drug metabolism in human hepatocytes assessed as 3-(4-(2-((1S,3R)-3-acetamidocyclohexanecarboxamido)-5-fluoropyridin-4-yl)-1H-pyrazol-5-yl)-2,2-dimethylpropanoic acid metabolite formation", "format": "ADME, cell-based, Hepatocyte"}, "Homo sapiens [28]": {"species_on_record": "Homo sapiens", "assay": "Selectivity ratio of IC50 for CDK4 (unknown origin) in presence of 5 mM ATP to IC50 for Inhibition of recombinant full length human N-terminal GST-fused CDK9 (1 to 372 residues)/His-tagged CyclinT1 (1 to 726 residues) expressed in baculovirus infected insect cells"}, "[29]": {"assay": "Drug metabolism in human hepatocytes assessed as (1S,3R)-3-acetamido-N-(5-fluoro-4-(5-(3-hydroxy-2,2-dimethylpropyl)-1H-pyrazol-4-yl)pyridin-2-yl)cyclohexanecarboxamide metabolite formation", "format": "ADME, cell-based, Hepatocyte"}}, "note": "Calls of active or inactive are those of the source. No cut-off for these calls is given here."}
{"smiles": "CC(=O)N[C@@H]1CCC[C@H](C(=O)Nc2cc(-c3cnn4c3CCCC4)c(Cl)cn2)C1", "values": [{"measurement": "solubility thermodynamic", "setting": "[1]", "result": 94, "unit": "µg/mL"}, {"measurement": "half-life", "setting": "[2]; dose 4.8 µmol/kg", "result": 27, "unit": "min"}, {"measurement": "Drug metabolism", "setting": "[3]", "result": "Metabolite_Detected"}, {"measurement": "inhibition", "setting": "CDK9/cyclin T1", "result": 98, "unit": "%"}, {"measurement": "Drug metabolism", "setting": "[4]", "result": "Metabolite_Detected"}, {"measurement": "Vd", "setting": "[5]; dose 4.8 µmol/kg", "result": 0.65, "unit": "L/kg"}, {"measurement": "solubility thermodynamic", "setting": "[6]", "result": 210, "unit": "µg/mL"}, {"measurement": "clearance", "setting": "[7]", "result": 65, "unit": "mL/min/kg"}]}
{"smiles": "CC(=O)N[C@@H]1CCC[C@H](C(=O)Nc2cc(-c3cnn4c3CC(C)(C)C4)c(Cl)cn2)C1", "note": "[ZEMIRCICLIB]", "values": [{"measurement": "Activity", "setting": "MV4-11", "result": "Dose-dependent effect"}, {"measurement": "clearance", "setting": "[8]", "result": 19, "unit": "mL/min/kg"}, {"measurement": "inhibition", "setting": "[9]", "result": "Dose-dependent effect"}, {"measurement": "Drug metabolism", "setting": "[10]", "result": "Metabolite_Detected"}, {"measurement": "half-life", "setting": "[11]", "result": 39.6, "unit": "min"}, {"measurement": "IC50", "setting": "[12]", "result": 247, "unit": "nM"}, {"measurement": "solubility thermodynamic", "setting": "[13]", "result": 17, "unit": "µg/mL"}, {"measurement": "clearance", "setting": "[14]", "result": 55, "unit": "mL/min/kg"}, {"measurement": "hepatocyte CLint", "setting": "[15]", "result": 32, "unit": "µL/min/1e6 cells"}, {"measurement": "Vd", "setting": "[16]", "result": 1.3, "unit": "L/kg"}, {"measurement": "inhibition", "setting": "[17]", "result": "Active"}, {"measurement": "Vd", "setting": "[18]", "result": 0.45, "unit": "L/kg"}, {"measurement": "inhibition", "setting": "[19]", "result": 90, "unit": "%"}, {"measurement": "inhibition", "setting": "[20]", "result": 85, "unit": "%"}, {"measurement": "Drug metabolism", "setting": "[21]", "result": "Metabolite_Detected"}]}
{"smiles": "CC(=O)N[C@@H]1CCC[C@H](C(=O)Nc2cc(-c3cnn4c3CC(C)(C)C4)c(F)cn2)C1", "values": [{"measurement": "Ratio IC50", "setting": "Homo sapiens [22]", "result": 16}, {"measurement": "half-life", "setting": "[2]; dose 2.4 µmol/kg", "result": 9.6, "unit": "min"}, {"measurement": "clearance at 0.25 h", "setting": "[23]", "result": 53, "unit": "mL/min/kg"}, {"measurement": "Drug metabolism", "setting": "[24]", "result": "Metabolite_Detected"}, {"measurement": "Drug metabolism", "setting": "[25]", "result": "Metabolite_Detected"}, {"measurement": "IC50", "setting": "[26]", "result": 25, "unit": "nM"}, {"measurement": "solubility thermodynamic", "setting": "[13]", "result": 30, "unit": "µg/mL"}, {"measurement": "inhibition", "setting": "CDK9/cyclin T1", "result": 100, "unit": "%"}, {"measurement": "Drug metabolism", "setting": "[27]", "result": "Metabolite_Detected"}, {"measurement": "Ratio IC50", "setting": "Homo sapiens [28]", "result": 16}, {"measurement": "Vd", "setting": "[5]; dose 2.4 µmol/kg", "result": 0.49, "unit": "L/kg"}, {"measurement": "Drug metabolism", "setting": "[29]", "result": "Metabolite_Detected"}]}
